# From ChEMBL document CHEMBL1821583 (Bioorg Med Chem Lett, 2011)
# Tests used:
# [1] = target: Voltage-gated inwardly rectifying potassium channel KCNH2 (Homo sapiens, UniProt Q12809)
# [2] = Lipophilicity, log D of the compound; assay type: physicochemical; details: octanol/water
# [3] = Intrinsic clearance in human liver microsomes assessed per mg of protein; assay type: ADME, Microsome
# [4] = target: T1, Protein smoothened (Homo sapiens, UniProt Q99835); assay: Displacement of BODIPY-cyclopamine from Smo expressed in COS-1 cells after 4 to 6 hrs by Flow Cytometry analysis in presence of 2% fetal calf serum; assay type: cell-based
# [5] = target: T1, Protein smoothened; assay: Displacement of BODIPY-cyclopamine from Smo expressed in COS-1 cells after 4 to 6 hrs by Flow Cytometry analysis in presence of 20% normal human serum; assay type: cell-based
# [6] = Intrinsic clearance in rat liver microsomes assessed per mg of protein; assay type: ADME, Microsome
# [7] = Inhibition of hedgehog signaling pathway in mouse Shh Light2 cells by Gli-dependent reporter gene assay; assay type: functional, cell-based; details: Shh Light II
# [8] = Clearance in iv dosed rat; assay type: ADME, organism-based; details: in vivo
# Sequence of Voltage-gated inwardly rectifying potassium channel KCNH2 (Q12809 whole entry): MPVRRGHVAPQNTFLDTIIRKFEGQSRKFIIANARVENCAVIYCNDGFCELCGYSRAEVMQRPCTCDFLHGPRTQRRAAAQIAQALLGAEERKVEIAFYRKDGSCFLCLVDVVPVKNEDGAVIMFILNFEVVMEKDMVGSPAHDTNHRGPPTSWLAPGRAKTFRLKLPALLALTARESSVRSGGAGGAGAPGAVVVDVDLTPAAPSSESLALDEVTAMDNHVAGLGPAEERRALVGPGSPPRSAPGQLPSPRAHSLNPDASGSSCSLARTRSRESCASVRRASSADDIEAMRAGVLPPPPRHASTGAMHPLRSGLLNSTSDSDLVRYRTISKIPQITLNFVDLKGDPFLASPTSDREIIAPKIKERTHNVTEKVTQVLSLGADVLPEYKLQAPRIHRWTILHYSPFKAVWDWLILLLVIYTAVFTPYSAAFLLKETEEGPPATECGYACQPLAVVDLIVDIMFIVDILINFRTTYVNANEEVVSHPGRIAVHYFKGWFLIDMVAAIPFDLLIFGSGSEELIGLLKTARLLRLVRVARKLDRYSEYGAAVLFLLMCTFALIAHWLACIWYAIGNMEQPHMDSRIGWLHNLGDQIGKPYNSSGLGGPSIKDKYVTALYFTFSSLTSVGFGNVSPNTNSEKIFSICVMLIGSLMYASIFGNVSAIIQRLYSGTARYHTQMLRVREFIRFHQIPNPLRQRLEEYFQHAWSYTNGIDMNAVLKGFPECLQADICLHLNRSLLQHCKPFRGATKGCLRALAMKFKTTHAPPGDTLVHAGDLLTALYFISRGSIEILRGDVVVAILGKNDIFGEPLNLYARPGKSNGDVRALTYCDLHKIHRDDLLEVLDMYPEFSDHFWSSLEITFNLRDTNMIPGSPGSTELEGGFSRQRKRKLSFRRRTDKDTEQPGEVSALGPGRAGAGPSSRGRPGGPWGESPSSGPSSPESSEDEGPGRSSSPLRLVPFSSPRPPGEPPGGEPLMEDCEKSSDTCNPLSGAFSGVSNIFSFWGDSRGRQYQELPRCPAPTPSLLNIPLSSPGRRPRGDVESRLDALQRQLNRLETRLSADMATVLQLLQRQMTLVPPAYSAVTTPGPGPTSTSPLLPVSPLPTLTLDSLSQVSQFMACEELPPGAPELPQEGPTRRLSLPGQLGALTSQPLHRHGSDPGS
# T1 sequence (Q99835 whole entry): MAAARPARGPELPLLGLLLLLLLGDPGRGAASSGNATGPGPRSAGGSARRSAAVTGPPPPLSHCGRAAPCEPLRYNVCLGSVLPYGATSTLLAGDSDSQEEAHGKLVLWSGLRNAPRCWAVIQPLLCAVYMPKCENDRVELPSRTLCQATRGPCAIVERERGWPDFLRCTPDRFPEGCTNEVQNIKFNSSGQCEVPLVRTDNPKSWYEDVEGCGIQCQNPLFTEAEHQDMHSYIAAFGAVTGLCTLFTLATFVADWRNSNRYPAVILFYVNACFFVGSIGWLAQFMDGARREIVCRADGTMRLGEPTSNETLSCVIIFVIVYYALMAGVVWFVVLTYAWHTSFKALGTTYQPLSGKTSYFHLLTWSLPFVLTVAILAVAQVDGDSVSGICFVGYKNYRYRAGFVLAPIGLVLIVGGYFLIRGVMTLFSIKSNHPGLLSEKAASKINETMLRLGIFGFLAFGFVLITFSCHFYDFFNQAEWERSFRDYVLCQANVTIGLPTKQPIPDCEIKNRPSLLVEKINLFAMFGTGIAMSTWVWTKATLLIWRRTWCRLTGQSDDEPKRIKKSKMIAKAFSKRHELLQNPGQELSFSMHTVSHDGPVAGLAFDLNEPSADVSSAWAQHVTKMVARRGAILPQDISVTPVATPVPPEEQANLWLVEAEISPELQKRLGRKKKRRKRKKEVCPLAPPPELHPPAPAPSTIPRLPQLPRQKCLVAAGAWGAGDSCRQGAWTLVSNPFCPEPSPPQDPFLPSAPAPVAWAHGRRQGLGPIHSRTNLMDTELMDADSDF
smiles,measurement,setting,value
O=C(NCC1(N2CCOCC2)CCCC1)N1CCC(c2nc(-c3ccc4ccccc4n3)no2)CC1,IC50,[1],10 µM
same,logD,[2],2.62
same,microsomal CLint,[3],> 400 µL/min/mg
same,IC50,[4],0.03 µM
same,IC50,[5],0.1 µM
same,microsomal CLint,[6],> 500 µL/min/mg
same,IC50,[7],0.046 µM
O=C(NCC(c1ccccc1)N1CCCCC1)N1CCC(c2nc(-c3ccc4ccccc4n3)no2)CC1 (stereo not given),IC50,[4],0.21 µM
same,IC50,[5],0.33 µM
same,IC50,[7],0.13 µM
CCN1CCOCC1CNC(=O)N1CCC(c2nc(-c3ccc4ccccc4n3)no2)CC1 (stereo not given),IC50,[4],0.3 µM
same,IC50,[5],0.39 µM
same,IC50,[7],0.23 µM
CC(C)N1CCCC1CNC(=O)N1CCC(c2nc(-c3ccc4ccccc4n3)no2)CC1 (stereo not given),microsomal CLint,[3],10 µL/min/mg
same,IC50,[4],0.34 µM
same,IC50,[5],0.65 µM
same,microsomal CLint,[6],19 µL/min/mg
same,IC50,[7],0.85 µM
same,clearance,[8],> 6 L/h/kg
O=C(NCC1(N2CCOCC2)CCCCCC1)N1CCC(c2nc(-c3ccc4ccccc4n3)no2)CC1,IC50,[4],0.24 µM
same,IC50,[5],0.48 µM
same,IC50,[7],0.33 µM
Cn1c(-c2noc(C3CCN(C(=O)NCC4(N5CCOCC5)CCCC4)CC3)n2)nc2ccccc21,IC50,[4],0.017 µM
same,IC50,[5],0.015 µM
same,IC50,[7],0.018 µM
O=C(NCC1(N2CCC(F)CC2)CCCC1)N1CCC(c2nc(-c3ccc4ccccc4n3)no2)CC1,IC50,[4],0.11 µM
same,IC50,[5],0.2 µM
same,IC50,[7],0.09 µM
O=C(NCC1(N2CCCCC2)CCCC1)N1CCC(c2nc(-c3ccc4ccccc4n3)no2)CC1,microsomal CLint,[3],49 µL/min/mg
same,IC50,[4],0.046 µM
same,IC50,[5],0.051 µM
same,microsomal CLint,[6],160 µL/min/mg
same,IC50,[7],0.1 µM
same,clearance,[8],> 6 L/h/kg
CC(C)(C)OC(=O)NC1(CNC(=O)N2CCC(c3nc(-c4ccc5ccccc5n4)no3)CC2)CCCC1,IC50,[4],2 µM
same,IC50,[5],14 µM
same,IC50,[7],2 µM
O=C(NCC1(c2ccccc2)CCCC1)N1CCC(c2nc(-c3ccc4ccccc4n3)no2)CC1,IC50,[4],0.81 µM
same,IC50,[5],4.5 µM
same,IC50,[7],0.41 µM
O=C(NCC1(N2CCCC2)CCCC1)N1CCC(c2nc(-c3ccc4ccccc4n3)no2)CC1,IC50,[1],7.1 µM
same,microsomal CLint,[3],52 µL/min/mg
same,IC50,[4],0.032 µM
same,IC50,[5],0.042 µM
same,microsomal CLint,[6],100 µL/min/mg
same,IC50,[7],0.069 µM
CN(C)C1(CNC(=O)N2CCC(c3nc(-c4ccc5ccccc5n4)no3)CC2)CCCC1,IC50,[1],38 µM
same,microsomal CLint,[3],40 µL/min/mg
same,IC50,[4],0.3 µM
same,IC50,[5],0.37 µM
same,microsomal CLint,[6],27 µL/min/mg
same,IC50,[7],0.31 µM
NC1(CNC(=O)N2CCC(c3nc(-c4ccc5ccccc5n4)no3)CC2)CCCC1,IC50,[4],0.63 µM
same,IC50,[5],0.79 µM
same,IC50,[7],0.35 µM
CCNC1(CNC(=O)N2CCC(c3nc(-c4ccc5ccccc5n4)no3)CC2)CCCC1,IC50,[1],24 µM
same,microsomal CLint,[3],7 µL/min/mg
same,IC50,[4],0.046 µM
same,IC50,[5],0.091 µM
same,microsomal CLint,[6],51 µL/min/mg
same,IC50,[7],0.088 µM
CC(C)(CNC(=O)N1CCC(c2nc(-c3ccc4ccccc4n3)no2)CC1)N1CCOCC1,microsomal CLint,[3],112 µL/min/mg
same,IC50,[4],0.29 µM
same,IC50,[5],0.67 µM
same,microsomal CLint,[6],> 300 µL/min/mg
same,IC50,[7],0.45 µM
CCN1CCCC1CNC(=O)N1CCC(c2nc(-c3ccc4ccccc4n3)no2)CC1 (stereo not given),IC50,[4],0.29 µM
same,IC50,[5],0.49 µM
O=C(NCC(c1cccnc1)N1CCOCC1)N1CCC(c2nc(-c3ccc4ccccc4n3)no2)CC1 (stereo not given),IC50,[4],2.6 µM
same,IC50,[5],9.9 µM
same,IC50,[7],4.2 µM
O=C(NCC(c1ccccn1)N1CCOCC1)N1CCC(c2nc(-c3ccc4ccccc4n3)no2)CC1 (stereo not given),IC50,[4],2.7 µM
same,IC50,[5],4.2 µM
same,IC50,[7],0.79 µM
O=C(NCC1NCCc2ccccc21)N1CCC(c2nc(-c3ccc4ccccc4n3)no2)CC1 (stereo not given),IC50,[4],0.38 µM
same,IC50,[5],0.6 µM
same,IC50,[7],0.96 µM
CCN(CC)C1(CNC(=O)N2CCC(c3nc(-c4ccc5ccccc5n4)no3)CC2)CCCC1,IC50,[1],9.4 µM
same,microsomal CLint,[3],98 µL/min/mg
same,IC50,[4],0.055 µM
same,IC50,[5],0.046 µM
same,microsomal CLint,[6],> 200 µL/min/mg
same,IC50,[7],0.12 µM
O=C(NC1CCC(F)(F)CC1)N1CCN(c2nc(-c3ccc4ccccc4n3)no2)CC1,IC50,[4],0.013 µM
same,IC50,[5],0.013 µM
same,IC50,[7],0.005 µM
CC(=O)NC1(CNC(=O)N2CCC(c3nc(-c4ccc5ccccc5n4)no3)CC2)CCCC1,IC50,[4],0.32 µM
same,IC50,[5],13 µM
same,IC50,[7],0.19 µM
O=C(NCCN1CCOCC1)N1CCC(c2nc(-c3ccc4ccccc4n3)no2)CC1,IC50,[4],4.9 µM
same,IC50,[5],3.4 µM
same,IC50,[7],2.5 µM
O=C(NCC1(CO)CCCC1)N1CCC(c2nc(-c3ccc4ccccc4n3)no2)CC1,IC50,[4],0.91 µM
same,IC50,[5],6.9 µM
same,IC50,[7],0.6 µM
Cn1c(-c2noc(C3CCN(C(=O)NCC4(N5CCCCC5)CCCC4)CC3)n2)nc2ccccc21,IC50,[4],0.021 µM
same,IC50,[5],0.019 µM
same,IC50,[7],0.023 µM
CN1CCc2ccccc2C1CNC(=O)N1CCC(c2nc(-c3ccc4ccccc4n3)no2)CC1 (stereo not given),IC50,[4],0.36 µM
same,IC50,[5],0.47 µM
same,IC50,[7],0.38 µM
CCN1CCCCC1CNC(=O)N1CCC(c2nc(-c3ccc4ccccc4n3)no2)CC1 (stereo not given),IC50,[4],0.064 µM
same,IC50,[5],0.08 µM
same,IC50,[7],0.13 µM
O=C(NCC(c1ccncc1)N1CCOCC1)N1CCC(c2nc(-c3ccc4ccccc4n3)no2)CC1 (stereo not given),IC50,[4],8.6 µM
same,IC50,[5],17 µM
same,IC50,[7],8.2 µM
COC1CCN(C2(CNC(=O)N3CCC(c4nc(-c5ccc6ccccc6n5)no4)CC3)CCCC2)CC1,IC50,[4],0.21 µM
same,IC50,[5],0.53 µM
same,IC50,[7],0.26 µM
O=C(NCC1(N2CCOCC2)CCCCC1)N1CCC(c2nc(-c3ccc4ccccc4n3)no2)CC1,IC50,[1],4.3 µM
same,microsomal CLint,[3],> 500 µL/min/mg
same,IC50,[4],0.023 µM
same,IC50,[5],0.072 µM
same,microsomal CLint,[6],> 500 µL/min/mg
same,IC50,[7],0.14 µM
O=C(NCC1(N2CCC(F)(F)CC2)CCCC1)N1CCC(c2nc(-c3ccc4ccccc4n3)no2)CC1,IC50,[4],0.18 µM
same,IC50,[5],0.95 µM
same,IC50,[7],0.1 µM
CN1CCN(C2(CNC(=O)N3CCC(c4nc(-c5ccc6ccccc6n5)no4)CC3)CCCC2)CC1,IC50,[4],0.51 µM
same,IC50,[5],0.4 µM
same,IC50,[7],0.45 µM
O=C(NCC1(N2CCCCC2)CCCC1)N1CCN(c2nc(-c3ccc4ccccc4n3)no2)CC1,IC50,[4],0.008 µM
same,IC50,[5],0.01 µM
same,IC50,[7],0.04 µM
same,clearance,[8],> 6 L/h/kg
Cn1c(-c2noc(N3CCN(C(=O)NCC4(N5CCCCC5)CCCC4)CC3)n2)nc2ccccc21,IC50,[4],0.005 µM
same,IC50,[5],0.006 µM
same,IC50,[7],0.004 µM
O=C(NCC1(C(=O)N2CCCCC2)CCCC1)N1CCC(c2nc(-c3ccc4ccccc4n3)no2)CC1,IC50,[4],0.23 µM
same,IC50,[5],7 µM
O=C(NCC1(N2CCOCC2)CCCC1)N1CCN(c2nc(-c3ccc4ccccc4n3)no2)CC1,IC50,[4],0.01 µM
same,IC50,[5],0.015 µM
same,IC50,[7],0.016 µM
O=C(NCC1(NC2CCCCC2)CCCC1)N1CCC(c2nc(-c3ccc4ccccc4n3)no2)CC1,IC50,[4],0.14 µM
same,IC50,[5],0.52 µM
same,IC50,[7],0.43 µM
CC(C)NC1(CNC(=O)N2CCC(c3nc(-c4ccc5ccccc5n4)no3)CC2)CCCC1,IC50,[4],0.016 µM
same,IC50,[5],0.058 µM
same,IC50,[7],0.025 µM
